Data: patent US5795977A, “Water soluble adenosine kinase inhibitors” (Metabasis Therapeutics, Inc., priority 1996, dated 1998)
Structures can show the parent of a compound that is named as a salt.

Experiments:
Rats (carrageenan paw) = assay: Anti-inflammatory activity, carrageenan paw swelling; type: in vivo; details: rat, 10 mg/kg, swelling after 3 hours; for Carrageenan Paw (% inhibition) po: oral gavage
Protocol: Carrageenan (Type λ) was suspended in sterile PBS at 1% (w/v), autoclaved for 30 minutes, and stored at room temperature. Rats were pretreated with vehicle or AK inhibitor (10 mg/kg) by oral gavage or i.p. administration and the volume of the left hind paw was measured using a water displacement plethysmometer (Stoelting Co., Wood Dale, Ill.). One hour after oral treatment or 30 minutes after i.p. treatment, the rats were briefly anesthetized, and 0.1 ml of the carrageenan solution was injected subcutaneously into the planar surface of the left hind paw. The ensuing paw swelling was measured by plethysmometry after 3 hours. The paw volume in millileters was […]. Data are presented in Table 2 as the percent inhibition of paw swelling in AK inhibitor treated animals, compared to vehicle treated control animals.

[1] = target: partially purified pig heart adenosine kinase or recombinant human adenosine kinase; assay: AK inhibition; type: biochemical; details: 0.5 μM [U-14C] adenosine, pH 7.0, 37° C., 20 minutes
Protocol: Adenosine kinase activity was measured essentially as described by Yamada et al. Biochim. Biophys. Acta 660, 36-43 (1988) with a few minor modifications. Assay mixtures contained 50 mM TRIS-maleate buffer, pH 7.0, 0.1% BSA, 1 mM ATP 1 mM MgCl2, 0.5 μM [U-^14 C] adenosine (400-600 mCi/mmol) and varying duplicate concentrations of inhibitor. […] The amount of ^14 C-AMP was quantified by scintillation counting.

For C[C@H]1O[C@@H](n2cc(-c3ccccc3)c3c(Nc4ccc(CCO)cc4)ncnc32)[C@H](O)[C@@H]1O [Compound 2, 4-N-(4-(2-Hydroxyethyl)phenyl)amino-5-phenyl-7-(5-deoxy-β-D-ribofuranosyl)pyrrolo[2,3-d]pyrimidine], the “Carrageenan Paw (% inhibition) ip” value (Rats (carrageenan paw)) was 13.2%, the “Carrageenan Paw (% inhibition) po” value (Rats (carrageenan paw)) was 1.9% and the IC50 [1] was 1 nM.
C[C@H]1O[C@@H](n2cc(-c3ccccc3)c3c(Nc4ccc(CCN(C)C)cc4)ncnc32)[C@H](O)[C@@H]1O [Compound 7, 4-N-[4-(2-N,N-dimethylaminoethyl)phenyl]amino-5-phenyl-7-(5-deoxy-β-D-ribofuranosyl)pyrrolo[2,3-d]pyrimidine] was tested, and the “Carrageenan Paw (% inhibition) ip” value (Rats (carrageenan paw)) was 19.0%, the “Carrageenan Paw (% inhibition) po” value (Rats (carrageenan paw)) was 7.7% and the IC50 [1] was 1 nM.
NCCc1ccc(Nc2ncnc3c2c(-c2ccccc2)cn3[C@@H]2O[C@@H](CO)[C@@H](O)[C@H]2O)cc1 [Compound 16, 4-N-(4-(2-aminoethyl)phenyl)amino-5-phenyl-7-α-L-lyxofuranosylpyrrolo[2,3-d]pyrimidine] was tested, and the “Carrageenan Paw (% inhibition) ip” value (Rats (carrageenan paw)) was 31.6%, the “Carrageenan Paw (% inhibition) po” value (Rats (carrageenan paw)) was 12.4% and the IC50 [1] was 1 nM.
With CC(=O)Nc1ccc(Nc2ncnc3c2c(I)cn3[C@@H]2O[C@H](C)[C@H]3OC(C)(C)O[C@H]32)cc1 [Compound 29, 4-N-[4-(N-acetylamino)phenyl]amino-5-iodo-7-(1-β-D-5-deoxy-2,3-O-isopropylideneribose)pyrrolo[2,3-d]pyrimidine] the “Carrageenan Paw (% inhibition) ip” value (Rats (carrageenan paw)) was 26.1%, the “Carrageenan Paw (% inhibition) po” value (Rats (carrageenan paw)) was 14.9% and the IC50 [1] was 0.5 nM.
With C[C@H]1O[C@@H](n2cc(-c3ccccc3)c3c(Nc4ccc(C(N)=NO)cc4)ncnc32)[C@H](O)[C@@H]1O [Compound 37, 4-N-(4-amidoximephenyl)amino-5-phenyl-7-(5-deoxy-1-β-D-ribofuranosylpyrrolo[2,3-d]pyrimidine hydrochloride] the “Carrageenan Paw (% inhibition) ip” value (Rats (carrageenan paw)) was 17.9%, the “Carrageenan Paw (% inhibition) po” value (Rats (carrageenan paw)) was 23.3% and the IC50 [1] was 5 nM.
In the case of C[C@H]1O[C@@H](n2cc(-c3cccnc3)c3c(Nc4ccccc4)ncnc32)[C@H](O)[C@@H]1O [Compound 47, 4-N-Phenylamino-5-(3-pyridino)-7-(5-deoxy-1-β-D-ribofuranosyl) pyrrolo[2,3-d]pyrimidine], the “Carrageenan Paw (% inhibition) ip” value (Rats (carrageenan paw)) is reported as 0.0%, the “Carrageenan Paw (% inhibition) po” value (Rats (carrageenan paw)) is reported as 9.8% and the IC50 [1] is reported as 55 nM.
For C[C@H]1O[C@@H](n2cc(-c3ccccc3)c3c(Nc4ccc(CC(=O)N5CCNCC5)cc4)ncnc32)[C@H](O)[C@@H]1O [Compound 189], the “Carrageenan Paw (% inhibition) ip” value (Rats (carrageenan paw)) was 30.1%, the “Carrageenan Paw (% inhibition) po” value (Rats (carrageenan paw)) was 12.1% and the IC50 [1] was 1 nM.
In the case of C[C@H]1O[C@@H](n2cc(-c3ccccc3)c3c(Nc4ccc(OCC(=O)N5CCNCC5)cc4)ncnc32)[C@H](O)[C@@H]1O [Compound 196, 4-N-[4-(4-piperazinocarbonylmethyloxy)phenyl]amino-5-phenyl-7-(5-deoxy-1-β-D-ribofuranosyl)pyrrolo(2,3-d)pyrimidine], the “Carrageenan Paw (% inhibition) ip” value (Rats (carrageenan paw)) is reported as 11.8%, the “Carrageenan Paw (% inhibition) po” value (Rats (carrageenan paw)) is reported as 0.0% and the IC50 [1] is reported as 0.35 nM.
With CCN(CC)CCNC(=O)c1ccc(-c2cn([C@@H]3O[C@H](C)[C@@H](O)[C@H]3O)c3ncnc(Nc4ccc(F)cc4)c23)cc1 [Compound 200, 4-N-(4-fluorophenyl)amino-5-[4-(2-N,N-diethylaminoethyleneaminocarbonyl)phenyl]-7-(5-deoxy-1-β-D-ribofuranosyl)pyrrolo[2,3-d]pyrimidine hydrochloride] the IC50 [1] was 200 nM.
For C[C@H]1O[C@@H](n2cc(-c3ccc(/C=C/C(=O)O)cc3)c3c(Nc4ccc(F)cc4)ncnc32)[C@H](O)[C@@H]1O [Compound 202, 4-N-(4-fluorophenyl)amino-5-[4-(2-carboxy-E-ethenyl)phenyl]-7-(5-deoxy-1-β-D-ribofuranosyl)pyrrolo[2,3-d]pyrimidine], the “Carrageenan Paw (% inhibition) ip” value (Rats (carrageenan paw)) was 3.4%, the “Carrageenan Paw (% inhibition) po” value (Rats (carrageenan paw)) was 3.9% and the IC50 [1] was 20 nM.
In the case of C[C@H]1O[C@@H](n2cc(-c3ccc(CCC(=O)O)cc3)c3c(Nc4ccc(F)cc4)ncnc32)[C@H](O)[C@@H]1O [Compound 204, 4-N-(4-fluorophenyl)amino-5-[4-(2-carboxyethyl)phenyl]-7-(5-deoxy-1-β-D-ribofuranosyl)pyrrolo[2,3-d]pyrimidine], the IC50 [1] is reported as 45 nM.
C[C@H]1O[C@@H](n2cc(-c3cccc(NC(=N)N)c3)c3c(Nc4ccc(F)cc4)ncnc32)[C@H](O)[C@@H]1O [Compound 206, 4-N-(4-fluorophenyl)amino-5-(3-guanidinophenyl)-7-(5-deoxy-1-β-D-ribofuranosyl)pyrrolo[2,3-d]pyrimidine] was tested, and the “Carrageenan Paw (% inhibition) ip” value (Rats (carrageenan paw)) was 10.1%, the “Carrageenan Paw (% inhibition) po” value (Rats (carrageenan paw)) was 23.5% and the IC50 [1] was 7 nM.
In the case of C[C@H]1O[C@@H](n2cc(-c3ccccc3)c3c(Nc4ccc(C(=O)O)cc4)ncnc32)[C@H](O)[C@@H]1O [Compound 209, 4-N-(4carboxyphenyl)amino-5-phenyl-7-(5-deoxy-1-β-D-ribofuranosyl)pyrrolo[2,3-d]pyrimidine], the “Carrageenan Paw (% inhibition) ip” value (Rats (carrageenan paw)) is reported as 22.0%, the “Carrageenan Paw (% inhibition) po” value (Rats (carrageenan paw)) is reported as 0.0% and the IC50 [1] is reported as 80 nM.
With C[C@H]1O[C@@H](n2cc(-c3ccccc3)c3c(Nc4ccc(C(=O)N5CCNCC5)cc4)ncnc32)[C@H](O)[C@@H]1O [Compound 210, 4-N-[4-(4-piperazinocarbonylphenyl)]amino-5-phenyl-7-(5-deoxy-1-β-D-ribofuranosyl)pyrrolo[2,3-d]pyrimidine] the “Carrageenan Paw (% inhibition) ip” value (Rats (carrageenan paw)) was 23.8%, the “Carrageenan Paw (% inhibition) po” value (Rats (carrageenan paw)) was 0.0% and the IC50 [1] was 2 nM.
CCN(CC)CCNC(=O)c1ccc(Nc2ncnc3c2c(-c2ccccc2)cn3[C@@H]2O[C@H](C)[C@@H](O)[C@H]2O)cc1 [Compound 211] gave an IC50 [1] of 0.5 nM.
For C[C@H]1O[C@@H](n2cc(-c3ccccc3)c3c(Nc4ccc(C(=O)NN5CCCCC5)cc4)ncnc32)[C@H](O)[C@@H]1O [Compound 212], the “Carrageenan Paw (% inhibition) ip” value (Rats (carrageenan paw)) was 1.8%, the “Carrageenan Paw (% inhibition) po” value (Rats (carrageenan paw)) was 0.0% and the IC50 [1] was 2 nM.
For C[C@H]1O[C@@H](n2cc(-c3ccccc3)c3c(Nc4ccc(CCS(=O)(=O)O)cc4)ncnc32)[C@H](O)[C@@H]1O [Compound 265, 4-N[4-(2-Sulfonyloxyethyl)phenylamino]-5-phenyl-7-(5-deoxy-1-β-D-ribofuranosyl)pyrrolo[2,3-d]pyrimidine], the “Carrageenan Paw (% inhibition) ip” value (Rats (carrageenan paw)) was 10.0%, the “Carrageenan Paw (% inhibition) po” value (Rats (carrageenan paw)) was 6.2% and the IC50 [1] was 2 nM.
C[C@H]1O[C@@H](n2cc(-c3ccccc3)c3c(Nc4ccc(CCNC(=N)N)cc4)ncnc32)[C@H](O)[C@@H]1O [Compound 267, 4-N-[4-(2-Guanidinoethyl)phenyl]amino-5-phenyl-7-(5-deoxy-1-β-D-ribofuranosyl)pyrrolo[2,3-d]pyrimidine hydrochloride] was tested, and the “Carrageenan Paw (% inhibition) ip” value (Rats (carrageenan paw)) was 52.3%, the “Carrageenan Paw (% inhibition) po” value (Rats (carrageenan paw)) was 15.4% and the IC50 [1] was 1 nM.
With C[C@H]1O[C@@H](n2cc(-c3ccccc3)c3c(Nc4ccc(CCNC(=O)c5cccnc5)cc4)ncnc32)[C@H](O)[C@@H]1O [Compound 268, 4-N-[2-(Nicotinylaminoethyl)phenyl]amino-5-phenyl-7-(5-deoxy-1-β-D-ribofuranosyl)pyrrolo(2,3-d)pyrimidine] the “Carrageenan Paw (% inhibition) ip” value (Rats (carrageenan paw)) was 0.0%, the “Carrageenan Paw (% inhibition) po” value (Rats (carrageenan paw)) was 7.1% and the IC50 [1] was 1 nM.
Compound C[C@H]1O[C@@H](n2cc(-c3ccccc3)c3c(Nc4ccc(NC(=N)N)cc4)ncnc32)[C@H](O)[C@@H]1O [Compound 269, 4-N-(4-Guanidinophenyl)amino-5-phenyl-7-(5-deoxy-1-β-D-ribofuranosyl)pyrrolo[2,3-d]pyrimidine] has an IC50 [1] of 6 nM.
